Experimental data: the supplement of paper PMC10307832

How the values were obtained:
Experiment in all cases: relative viability (nuclei count vs DMSO), 5 days (fraction); higher = more cells survive
[1] = tested on: NCI-H3122
In short: (§1)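 One day after seeding in 1536-well plates, lung cancer cell lines were dosed by pin tool. Dosing was either single-drug or a fixed anchor-drug dose plus five library-drug doses (not always all listed) in √10 steps. After 5 days, nuclei were stained in one fix-and-stain step and counted on 4× images, and relative viability is the nuclei count of treated wells over that of vehicle wells, given as the median of duplicate plates.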

[2] = tested on: NCI-H2405
In short: as §1

[3] = tested on: NCI-H647
In short: as §1

[4] = tested on: PC-14
In short: as §1

[5] = tested on: HCC-15
In short: as §1

[6] = tested on: NCI-H1793
In short: as §1

[7] = tested on: EPLC-272H
In short: as §1

[8] = tested on: LOU-NH91
In short: as §1

[9] = tested on: NCI-H322M
In short: as §1

[10] = tested on: H3255
In short: as §1

[11] = tested on: NCI-H2023
In short: as §1

[12] = tested on: COR-L23
In short: as §1

[13] = tested on: NCI-H441
In short: as §1

[14] = tested on: 201T
In short: as §1

[15] = tested on: UMC-11
In short: as §1

[16] = tested on: NCI-H520
In short: as §1

[17] = tested on: NCI-H2347
In short: as §1

[18] = tested on: NCI-H1734
In short: as §1

[19] = tested on: SW 900
In short: as §1

[20] = tested on: NCI-H1650
In short: as §1

[21] = tested on: NCI-H2170
In short: as §1

COc1cc2nccc(Oc3ccc(NC(=O)Nc4cc(C)on4)c(Cl)c3)c2cc1OC [Tivozanib] + Nc1ncn([C@H]2C[C@H](O)[C@@H](CO)O2)c(=O)n1 [Decitabine] (partner 2 µM)
relative viability ([1]; first compound 0.005 µM): 0.462
relative viability ([1]; first compound 0.01581 µM): 0.427
relative viability ([1]; first compound 0.05 µM): 0.429
relative viability ([1]; first compound 0.1581 µM): 0.401
relative viability ([1]; first compound 0.5 µM): 0.563
relative viability ([2]; first compound 0.005 µM): 0.676
relative viability ([2]; first compound 0.01581 µM): 0.771
relative viability ([2]; first compound 0.05 µM): 0.756
relative viability ([2]; first compound 0.1581 µM): 0.706
relative viability ([2]; first compound 0.5 µM): 0.591
relative viability ([3]; first compound 0.005 µM): 0.361
relative viability ([3]; first compound 0.01581 µM): 0.362
relative viability ([3]; first compound 0.05 µM): 0.302
relative viability ([3]; first compound 0.1581 µM): 0.315
relative viability ([3]; first compound 0.5 µM): 0.394
relative viability ([4]; first compound 0.005 µM): 0.195
relative viability ([4]; first compound 0.01581 µM): 0.214
relative viability ([4]; first compound 0.05 µM): 0.216
relative viability ([4]; first compound 0.1581 µM): 0.252
relative viability ([4]; first compound 0.5 µM): 0.153
relative viability ([5]; first compound 0.005 µM): 0.613
relative viability ([5]; first compound 0.01581 µM): 0.612
relative viability ([5]; first compound 0.05 µM): 0.641
relative viability ([5]; first compound 0.1581 µM): 0.727
relative viability ([5]; first compound 0.5 µM): 0.639
relative viability ([6]; first compound 0.005 µM): 0.474
relative viability ([6]; first compound 0.01581 µM): 0.518
relative viability ([6]; first compound 0.05 µM): 0.562
relative viability ([6]; first compound 0.5 µM): 0.481
relative viability ([7]; first compound 0.005 µM): 0.342
relative viability ([7]; first compound 0.01581 µM): 0.416
relative viability ([7]; first compound 0.05 µM): 0.391
relative viability ([7]; first compound 0.1581 µM): 0.409
relative viability ([7]; first compound 0.5 µM): 0.365
relative viability ([8]; first compound 0.005 µM): 0.772
relative viability ([8]; first compound 0.01581 µM): 0.8
relative viability ([8]; first compound 0.05 µM): 0.808
relative viability ([8]; first compound 0.1581 µM): 0.752
relative viability ([8]; first compound 0.5 µM): 0.796
relative viability ([9]; first compound 0.005 µM): 0.632
relative viability ([9]; first compound 0.01581 µM): 0.55
relative viability ([9]; first compound 0.05 µM): 0.762
relative viability ([9]; first compound 0.1581 µM): 0.656
relative viability ([9]; first compound 0.5 µM): 0.686
relative viability ([10]; first compound 0.005 µM): 0.541
relative viability ([10]; first compound 0.01581 µM): 0.592
relative viability ([10]; first compound 0.05 µM): 0.591
relative viability ([10]; first compound 0.1581 µM): 0.552
relative viability ([10]; first compound 0.5 µM): 0.77
relative viability ([11]; first compound 0.005 µM): 0.223
relative viability ([11]; first compound 0.01581 µM): 0.219
relative viability ([11]; first compound 0.05 µM): 0.24
relative viability ([11]; first compound 0.1581 µM): 0.242
relative viability ([11]; first compound 0.5 µM): 0.213
relative viability ([12]; first compound 0.005 µM): 0.391
relative viability ([12]; first compound 0.01581 µM): 0.398
relative viability ([12]; first compound 0.05 µM): 0.403
relative viability ([12]; first compound 0.1581 µM): 0.317
relative viability ([12]; first compound 0.5 µM): 0.372
relative viability ([13]; first compound 0.005 µM): 0.262
relative viability ([13]; first compound 0.01581 µM): 0.25
relative viability ([13]; first compound 0.05 µM): 0.218
relative viability ([13]; first compound 0.1581 µM): 0.281
relative viability ([13]; first compound 0.5 µM): 0.224
relative viability ([14]; first compound 0.005 µM): 0.85
relative viability ([14]; first compound 0.01581 µM): 0.855
relative viability ([14]; first compound 0.05 µM): 0.87
relative viability ([14]; first compound 0.1581 µM): 0.854
relative viability ([14]; first compound 0.5 µM): 0.896
relative viability ([15]; first compound 0.005 µM): 0.59
relative viability ([15]; first compound 0.01581 µM): 0.595
relative viability ([15]; first compound 0.05 µM): 0.657
relative viability ([15]; first compound 0.1581 µM): 0.478
relative viability ([15]; first compound 0.5 µM): 0.425
relative viability ([16]; first compound 0.005 µM): 0.442
relative viability ([16]; first compound 0.01581 µM): 0.448
relative viability ([16]; first compound 0.05 µM): 0.444
relative viability ([16]; first compound 0.1581 µM): 0.56
relative viability ([16]; first compound 0.5 µM): 0.351
relative viability ([17]; first compound 0.005 µM): 0.569
relative viability ([17]; first compound 0.01581 µM): 0.594
relative viability ([17]; first compound 0.05 µM): 0.62
relative viability ([17]; first compound 0.1581 µM): 0.57
relative viability ([17]; first compound 0.5 µM): 0.659
relative viability ([18]; first compound 0.005 µM): 0.493
relative viability ([18]; first compound 0.01581 µM): 0.428
relative viability ([18]; first compound 0.05 µM): 0.513
relative viability ([18]; first compound 0.1581 µM): 0.431
relative viability ([18]; first compound 0.5 µM): 0.5
relative viability ([19]; first compound 0.005 µM): 0.454
relative viability ([19]; first compound 0.01581 µM): 0.411
relative viability ([19]; first compound 0.05 µM): 0.454
relative viability ([19]; first compound 0.5 µM): 0.389
relative viability ([20]; first compound 0.005 µM): 0.412
relative viability ([20]; first compound 0.01581 µM): 0.493
relative viability ([20]; first compound 0.05 µM): 0.507
relative viability ([20]; first compound 0.1581 µM): 0.508
relative viability ([20]; first compound 0.5 µM): 0.411
relative viability ([21]; first compound 0.005 µM): 0.463
relative viability ([21]; first compound 0.01581 µM): 0.495
relative viability ([21]; first compound 0.05 µM): 0.489
relative viability ([21]; first compound 0.5 µM): 0.458
